Test results as given in publication PMC7915902, “Preclinical Evaluation of [^18F]FACH in Healthy Mice and Piglets: An ^18F-Labeled Ligand for Imaging of Monocarboxylate Transporters with PET” (International Journal of Molecular Sciences, 2021).
“And” between values parts separate entries of the source, which are not always exact repeats. Equal entries are not always repeated.

Legend:
MCT1 [1] = target: T1, MCT1 (Mus musculus, UniProt P53986); assay: MCT1 specific cell uptake of [18F]FACH in 4T1 cells; format: cell-based; conditions: control (vehicle), 30 min incubation, 37 °C, pH 7.4
T1 construct: endogenous in cells; host or cells: 4T1 cells (murine triple negative breast cancer), a gift from István Krizbai's group
T1 sequence (P53986 1-493): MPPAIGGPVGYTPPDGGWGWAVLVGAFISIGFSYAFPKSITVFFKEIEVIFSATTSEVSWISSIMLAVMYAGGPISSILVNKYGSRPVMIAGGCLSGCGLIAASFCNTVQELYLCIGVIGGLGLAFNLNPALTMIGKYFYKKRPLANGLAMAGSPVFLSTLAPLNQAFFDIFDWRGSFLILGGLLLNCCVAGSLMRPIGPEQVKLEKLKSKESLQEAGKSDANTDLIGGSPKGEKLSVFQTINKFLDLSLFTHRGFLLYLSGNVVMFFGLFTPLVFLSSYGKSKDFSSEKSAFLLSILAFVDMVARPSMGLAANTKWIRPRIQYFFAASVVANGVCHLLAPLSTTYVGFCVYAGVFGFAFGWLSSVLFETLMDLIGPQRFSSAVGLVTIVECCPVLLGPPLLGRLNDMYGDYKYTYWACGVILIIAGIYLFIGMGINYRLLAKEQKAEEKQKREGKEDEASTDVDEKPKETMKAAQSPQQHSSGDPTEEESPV
T1 sequence (P18572 140-389 partner limits assumed): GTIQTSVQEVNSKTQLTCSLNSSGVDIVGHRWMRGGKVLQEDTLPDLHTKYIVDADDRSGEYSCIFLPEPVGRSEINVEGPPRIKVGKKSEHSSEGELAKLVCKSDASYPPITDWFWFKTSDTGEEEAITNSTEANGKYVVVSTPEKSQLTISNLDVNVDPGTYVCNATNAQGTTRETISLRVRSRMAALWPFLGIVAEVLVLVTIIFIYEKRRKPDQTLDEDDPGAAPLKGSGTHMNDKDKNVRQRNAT
Procedure: Afterwards, the cell culture media was replaced with 500 µL RPMI 1640 supplemented with 20 mM HEPES adjusted to pH 7.4 without FCS and incubated for 16 h at 37 °C and 5% CO2. […] After a 30 min incubation, cells were collected on ice and washed three times with phosphate buffer saline and subsequently dispersed in 500 µL 0.1 N NaOH at room temperature for 10 min. The activity of 100 µL cell solution was measured in a gamma counter and normalized to initial dose. Protein content of 10 µL portions of cell solution was measured with a BCA Kit (Pierce, Thermo Fisher Scientific GmbH) relative to a BSA standard curve, and binding was normalized to units of %ID/ mg protein.

MCTs [2] = assay: Ex vivo biodistribution in mice; parameters: species or system mouse; conditions: for SUV adipose tissue / SUV adrenal gland / SUV bladder / SUV blood / SUV brain / SUV caecum / SUV femur / SUV gall bladder / SUV heart / SUV kidney / SUV large intestine / SUV liver / SUV lung / SUV ovar / SUV pancreas / SUV plasma / SUV small intestine / SUV spleen / SUV stomach / SUV urine: ex vivo, control
Procedure: Adult mice (28 to 39 g bodyweight) under isoflurane anesthesia were pre-treated by i.v. injection of saline as control (n = 3 for each time point) or 25 mg/kg α-CCA-Na (n = 3 for each time point) ten min before i.v. injection of [^18F]FACH (0.53 ± 0.06 MBq, 0.14 to 0.29 pmol/g bodyweight). The animals were euthanized by anesthesia overdose and cervical dislocation at five, 15 and 30 min after i.v. [^18F]FACH administration, and the radioactivity concentrations in harvested tissues were measured by a gamma counter (PerkinElmer), decay-corrected and normalized to the administered dose and tissue weight, and expressed as SUV in their harvested tissues. The red blood cell to plasma ratio was calculated as described by Bower et al.

MCTs [3] = assay: PET displacement study in mice; format: in vivo, mouse; conditions: mice
Procedure: The biodistribution of [^18F]FACH in mice was assessed by small animal PET (Nanoscan, Mediso, Budapest, Hungary) with dynamic 60 min emission recordings, followed by T1 weighted GRE MR (TR = 15.0 ms, TE = 2.4 ms, FA = 25°) imaging for anatomical correlations and attenuation correction. The mice (n = 20) weighing 32.2 ± 2.9 g were anaesthetised with 2% isoflurane in 60% oxygen, and placed on a thermostatically heated animal bed. The animals then received i.v. injections of 0.9% saline (control), reference compound (10 mg/kg), or α-CCA-Na (25 mg/kg) ten min prior or 20 min after (displacement studies) [^18F]FACH administration (2.3–8.6 MBq, 0.5–11.2 nmol/kg). List mode PET data were binned as a series of attenuation-corrected sinogram frames (12 × 10 s, 6 × 30 s, 5 × 60 s and 10 × 300 s) and were reconstructed by Ordered Subset Expectation Maximization (OSEM3D) with four iterations, six subsets and a voxel size of 0.4 mm³ (Nucline v2.01, Mediso).
The analysis of reconstructed datasets was performed with PMOD software (v4.103, PMOD Technologies LLC, Zurich, Switzerland).

MCT4 = system: MCT4; parameters: method as in PMID 31017677; conditions: L-[14C]lactate uptake, MDA-MB231 cells; read-out: IC50 towards MCT4; cited from earlier work
MCT1 [4] = system: MCT1; parameters: method as in PMID 31017677; conditions: L-[14C]lactate uptake, rat brain endothelial cells; read-out: IC50 towards MCT1; cited from earlier work

Q: With `CCCN(CCC[18F])c1ccc(/C=C(\C#N)C(=O)O)c(OC)c1` [[^18F]FACH, (E)-2-cyano-3-{4-[(3-[^18F]fluoropropyl)(propyl)amino]-2-methoxyphenyl}acrylic acid] as the compound, how does the cell-associated radioactivity (MCT1 [1]) read?
A: The cell-associated radioactivity was 4.7 %ID/mg protein.

Q: What about the “red blood cell to plasma ratio” value (MCTs [2]; biodistribution studies) of the same compound?
A: The value was less than 0.1.

Q: What about the SUV adipose tissue (MCTs [2]; 5 min p.i.) of the same compound?
A: Its SUV adipose tissue is 0.12.

Q: What about the SUV adrenal gland (MCTs [2]; 5 min p.i.) of the same compound?
A: The SUV adrenal gland was 0.80.

Q: What about the SUV bladder (MCTs [2]; 5 min p.i.) of the same compound?
A: The SUV bladder was 0.17.

Q: And the SUV blood (MCTs [2]; 5 min p.i.)?
A: The SUV blood was 1.85 ± 0.29 and 1.85.

Q: And the SUV brain (MCTs [2]; 5 min p.i.)?
A: The SUV brain was 0.08.

Q: What about the SUV caecum (MCTs [2]; 5 min p.i.) of the same compound?
A: The SUV caecum was 0.18.

Q: What about the SUV femur (MCTs [2]; 5 min p.i.) of the same compound?
A: The SUV femur was 0.17.

Q: What about the SUV gall bladder (MCTs [2]; 5 min p.i.) of the same compound?
A: The SUV gall bladder was 4.61.

Q: What about the SUV heart (MCTs [2]; 5 min p.i.) of the same compound?
A: Its SUV heart is 0.74.

Q: And the SUV kidney (MCTs [2]; 5 min p.i.)?
A: Its SUV kidney is 7.97.

Q: And the SUV large intestine (MCTs [2]; 5 min p.i.)?
A: The SUV large intestine was 0.24.

Q: What about the SUV liver (MCTs [2]; 5 min p.i.) of the same compound?
A: Its SUV liver is 9.65.

Q: And the SUV lung (MCTs [2]; 5 min p.i.)?
A: The SUV lung was 0.89 ± 0.12 and 0.89.

Q: What about the SUV ovar (MCTs [2]; 5 min p.i.) of the same compound?
A: Its SUV ovar is 0.38.

Q: What about the SUV pancreas (MCTs [2]; 5 min p.i.) of the same compound?
A: Its SUV pancreas is 0.51.

Q: And the SUV plasma (MCTs [2]; 5 min p.i.)?
A: The SUV plasma was 3.77 ± 0.57 and 3.77.

Q: What about the SUV small intestine (MCTs [2]; 5 min p.i.) of the same compound?
A: The SUV small intestine was 0.56.

Q: What about the SUV spleen (MCTs [2]; 5 min p.i.) of the same compound?
A: Its SUV spleen is 0.37.

Q: What about the SUV stomach (MCTs [2]; 5 min p.i.) of the same compound?
A: Its SUV stomach is 0.16.

Q: And the SUV urine (MCTs [2]; 5 min p.i.)?
A: The SUV urine was 0.82.

Q: What about the SUV adipose tissue (MCTs [2]; 15 min p.i.) of the same compound?
A: Its SUV adipose tissue is 0.18.

Q: What about the SUV adrenal gland (MCTs [2]; 15 min p.i.) of the same compound?
A: The SUV adrenal gland was 0.94.

Q: And the SUV bladder (MCTs [2]; 15 min p.i.)?
A: The SUV bladder was 0.35.

Q: What about the SUV blood (MCTs [2]; 15 min p.i.) of the same compound?
A: The SUV blood was 0.91.

Q: What about the SUV brain (MCTs [2]; 15 min p.i.) of the same compound?
A: The SUV brain was 0.04.

Q: What about the SUV caecum (MCTs [2]; 15 min p.i.) of the same compound?
A: The SUV caecum was 0.15.

Q: And the SUV femur (MCTs [2]; 15 min p.i.)?
A: Its SUV femur is 0.12.

Q: And the SUV gall bladder (MCTs [2]; 15 min p.i.)?
A: Its SUV gall bladder is 5.36.

Q: What about the SUV heart (MCTs [2]; 15 min p.i.) of the same compound?
A: Its SUV heart is 0.53.

Q: And the SUV kidney (MCTs [2]; 15 min p.i.)?
A: Its SUV kidney is 12.81.

Q: And the SUV large intestine (MCTs [2]; 15 min p.i.)?
A: Its SUV large intestine is 0.19.

Q: And the SUV liver (MCTs [2]; 15 min p.i.)?
A: Its SUV liver is 10.65.

Q: What about the SUV lung (MCTs [2]; 15 min p.i.) of the same compound?
A: The SUV lung was 0.59.

Q: What about the SUV ovar (MCTs [2]; 15 min p.i.) of the same compound?
A: Its SUV ovar is 0.33.

Q: What about the SUV pancreas (MCTs [2]; 15 min p.i.) of the same compound?
A: The SUV pancreas was 0.44.

Q: What about the SUV plasma (MCTs [2]; 15 min p.i.) of the same compound?
A: Its SUV plasma is 1.76.

Q: And the SUV small intestine (MCTs [2]; 15 min p.i.)?
A: The SUV small intestine was 0.66.

Q: What about the SUV spleen (MCTs [2]; 15 min p.i.) of the same compound?
A: The SUV spleen was 0.21.

Q: What about the SUV stomach (MCTs [2]; 15 min p.i.) of the same compound?
A: Its SUV stomach is 0.13.

Q: And the SUV urine (MCTs [2]; 15 min p.i.)?
A: The SUV urine was 4.32.

Q: What about the SUV adipose tissue (MCTs [2]; 30 min p.i.) of the same compound?
A: Its SUV adipose tissue is 0.15.

Q: And the SUV adrenal gland (MCTs [2]; 30 min p.i.)?
A: Its SUV adrenal gland is 0.51.

Q: And the SUV bladder (MCTs [2]; 30 min p.i.)?
A: Its SUV bladder is 0.31.

Q: And the SUV blood (MCTs [2]; 30 min p.i.)?
A: Its SUV blood is 0.82 ± 0.05 and 0.82.

Q: And the SUV brain (MCTs [2]; 30 min p.i.)?
A: The SUV brain was 0.04.

Q: What about the SUV caecum (MCTs [2]; 30 min p.i.) of the same compound?
A: Its SUV caecum is 0.19.

Q: What about the SUV femur (MCTs [2]; 30 min p.i.) of the same compound?
A: The SUV femur was 0.15.

Q: What about the SUV gall bladder (MCTs [2]; 30 min p.i.) of the same compound?
A: The SUV gall bladder was 10.96.

Q: What about the SUV heart (MCTs [2]; 30 min p.i.) of the same compound?
A: Its SUV heart is 0.58.

Q: And the SUV kidney (MCTs [2]; 30 min p.i.)?
A: Its SUV kidney is 15.97 ± 1.07 and 15.97.

Q: And the SUV large intestine (MCTs [2]; 30 min p.i.)?
A: The SUV large intestine was 0.26.

Q: And the SUV liver (MCTs [2]; 30 min p.i.)?
A: The SUV liver was 8.48.

Q: What about the SUV lung (MCTs [2]; 30 min p.i.) of the same compound?
A: Its SUV lung is 0.52 ± 0.02 and 0.52.

Q: What about the SUV ovar (MCTs [2]; 30 min p.i.) of the same compound?
A: Its SUV ovar is 0.32.

Q: What about the SUV pancreas (MCTs [2]; 30 min p.i.) of the same compound?
A: Its SUV pancreas is 0.38.

Q: What about the SUV plasma (MCTs [2]; 30 min p.i.) of the same compound?
A: The SUV plasma was 1.69 ± 0.17 and 1.69.

Q: What about the SUV small intestine (MCTs [2]; 30 min p.i.) of the same compound?
A: Its SUV small intestine is 1.11.

Q: What about the SUV spleen (MCTs [2]; 30 min p.i.) of the same compound?
A: The SUV spleen was 0.22.

Q: And the SUV stomach (MCTs [2]; 30 min p.i.)?
A: The SUV stomach was 0.20.

Q: What about the SUV urine (MCTs [2]; 30 min p.i.) of the same compound?
A: Its SUV urine is 4.57.

Q: What about the “kidney cortex SUV” value (MCTs [3]; before injection of α-CCA-Na) of the same compound?
A: Its value is 3.50 ± 0.42.

Q: What about the “blood SUV” value (MCTs [3]; pre-injection of α-CCA-Na) of the same compound?
A: The value was 0.74 ± 0.23.

Q: And the IC50 (MCT4)?
A: The IC50 was 6.5 nM.

Q: And the IC50 (MCT1 [4])?
A: The IC50 was 11 nM.
